Experimental data published in US4217355A, “Amide therapeutic agents” (Pfizer Inc., priority 1978, dated 1980).

Experiments:
[1] = test system: carrageenin-induced edema in the hind paw; experiment: carrageenin-induced rat food edema test (inhibition of edema formation in the hind paw); format: in vivo, male albino rats
Method: A. Winter et al., Proc. Soc. Exp. Biol. Med., Vol. 111, p.
A. Winter et al., as earlier reported in the Proceedings of the Society of Experimental Biology and Medicine, Vol. 111, p. 544 (1962). In this test, anti-inflammatory activity is determined as the percent inhibition of edema formation in the hind paw of male albino rats (weighing 150-190 g.) in response to a sub-plantar injection of carrageenin. The carrageenin is injected as a 1% aqueous suspension (0.05 ml.) one hour after oral administration of the drug, which is normally given in the form of an aqueous solution. Edema formation is then assessed three hours after the carrageenin injection by measuring the volume of the injected paw initially as well as at the three-hour mark. The increase in volume three hours after carrageenin injection constitutes the individual response.
The following N-(2-thiazolyl)amides were tested for anti-inflammatory activity in rats, using the standard carrageen-ininduced rat food edema test, according to the procedure essentially described by C. A. Winter et al., as first reported in the Proceedings of the Society for Experimental Biology and Medicine, Vol. 111, p. 544 (1962). […]

murine thymus cells = experiment: lymphocyte stimulation assay (LSA), in vitro lymphocyte proliferation of murine thymus cells cultured in the presence of Concanavalin A; format: cell-based, male C57B1/6 mice; settings: in vitro; Con A present; 48 hours at 37° C.; score at drug level with maximum activity
Text: On the other hand, the activity of the compounds of the present invention, as immunoregulator agents, is based on a study of their ability to stimulate, in vitro, the lymphocyte proliferation of murine thymus cells cultured in the presence of Concanavalin A (Con A) by employing the general evaluation procedure of V. J. Merluzzi et al., as described in the Journal of Clinical and Experimental Immunology, Vol. 22, p. 486 (1975).
486 (1975). The cells were derived from male C57B1/6 mice of from 6-8 weeks age, purchased from the Jackson Laboratories of Bar Harbor, Maine and the Con A was obtained from Sigma Chemicals of St. Louis, Missouri. Each cell culture (consisting of 0.10 ml. thymus cells stock solution, 0.05 ml. of Con A stock solution and 0.05 ml. of drug solution) was performed in quadruplicate and cellular proliferation was measured, after 48 hours of incubation at 37° C., by pulsing each culture with ^3 H-thymidine (0.01 ml. of specific activity 1.9 C/mM, obtained from Schwarz-Mann, Inc. of Orangeburg, N.Y.) and then determining the incorporation of ^3 H-thymidine into cellular desoxyribonucleic acid (DNA) by an assessment of radioactivity using a liquid scintillation counter.

[2] = test system: inflammation in adrenalectomized animals; experiment: anti-inflammatory activity in adrenalectomized animals; format: in vivo, rats
Text: As previously indicated, the N-(2-thiazolyl)amide compounds of the present invention are all readily adapted to therapeutic use as anti-inflammatory agents and as immunoregulators, particularly in view of their ability to reduce the swelling and relieve the pain caused by arthritic and other inflammatory disorders that are normally associated with such basic ailments as rheumatoid arthritis and the like. […] A. Winter et al., Proc. Soc. Exp. Biol. Med., Vol. 111, p.

With O=C(CNCc1ccccc1)Nc1nccs1 [X=H, R1=H, R2=benzyl, N-(2-thiazolyl)-α-benzylaminoacetamide] the “% Inhibition of edema formation (swelling)” value ([1]; rat, oral, 1.0 mg./kg.) was 35%, the “% Inhibition of edema formation” value ([1]; rat, oral, 33 mg./kg., three hours after carrageenin injection) was 52% and the “oral dose levels at which the non-steroidal therapeutic effect is exhibited” value ([1]; rats, tested orally) was 0.33 to 33 mg/kg. The “LSA Activity” value (murine thymus cells) was “+++ (those having an activity greater than levamisole (27,000±1,000 cpm) were scored as +++)” and the “anti-inflammatory activity in adrenalectomized animals” value [2] was “retaining its extremely potent anti-inflammatory activity in adrenalectomized animals to a significantly high degree”.
